Assay results as given in article PMC5733478, “A Non-imaging High Throughput Approach to Chemical Library Screening at the Unmodified Adenosine-A3 Receptor in Living Cells” (Frontiers in Pharmacology, 2017).
Structures can show the parent of a compound that is named as a salt.

What follows are molecules tested against T1, human A3AR (Homo sapiens, UniProt P0DMS8) (assay: LOPAC library primary screen: single concentration (10 μM) inhibition of 25 nM CA200645 binding, PHERAstar FS). Details: not given.
T1 construct: expressed in transfected cells
T1 sequence (P0DMS8 1-318): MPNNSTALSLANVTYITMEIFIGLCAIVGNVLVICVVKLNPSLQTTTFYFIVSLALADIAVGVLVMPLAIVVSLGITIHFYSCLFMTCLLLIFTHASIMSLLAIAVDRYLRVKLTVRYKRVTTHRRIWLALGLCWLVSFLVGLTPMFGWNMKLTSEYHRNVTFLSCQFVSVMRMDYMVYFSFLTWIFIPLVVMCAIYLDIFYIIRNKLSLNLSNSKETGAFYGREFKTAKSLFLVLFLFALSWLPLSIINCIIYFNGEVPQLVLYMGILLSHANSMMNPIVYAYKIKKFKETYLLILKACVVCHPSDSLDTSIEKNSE

Molecule | % 25 nM CA200645 binding [%] | hit in LOPAC primary screen (inhibited the binding of CA200645 by >40%)
CC[n+]1c(/C=C/C=C2/N(C)c3ccccc3C2(C)C)sc2ccccc21.[I-] [AC-93253 iodide] | 89.8 ± 11.3 | 
O=[N+]([O-])c1cc(O)c(O)c([N+](=O)[O-])c1 [3,5-Dinitrocatechol] | 100.0 ± 11.8 | 
Brc1c(Br)c(Br)c2n[nH]nc2c1Br [TBB] | 67.4 ± 13.4 | 
Br.CCSC(=N)N [S-Ethylisothiourea hydrobromide] | 91.5 ± 10.5 | 
N[C@@H](CS(=O)O)C(=O)O [L-Cysteinesulfinic Acid] | 83.6 ± 21.3 | 
CCc1cccc2c3c([nH]c12)C(CC)(CC(=O)O)OCC3 (stereo not drawn) [Etodolac] | 97.1 ± 13.7 | 
Brc1ccc([C@H]2CN3CCSC3=N2)cc1.O=C(O)C(=O)O [S(-)-p-Bromotetramisole oxalate] | 68.6 ± 44.8 | 
Cl.O[Si](CCCN1CCCCC1)(c1ccc(F)cc1)C1CCCCC1 (stereo not drawn) | 104.8 ± 7.7 | 
COc1ccc([C@@H]2Sc3ccccc3N(CCN(C)C)C(=O)[C@@H]2OC(C)=O)cc1 [Diltiazem hydrochloride] | 97.4 ± 8.9 | 
CNCCC=C1c2ccccc2CCc2ccccc21 [Nortriptyline hydrochloride] | 106.1 ± 17.3 | 
CCNC(=O)[C@H]1O[C@@H](n2cnc3c(N)nc(NCCc4ccc(CCC(=O)O)cc4)nc32)[C@H](O)[C@@H]1O [CGS 21680, reference compound] |  | not identified as hits
C=C(C)[C@H]1Cc2c(ccc3c2O[C@@H]2COc4cc(OC)c(OC)cc4[C@@H]2C3=O)O1 [Rotenone] | 92.4 ± 12.1 | 
CC(C)(C)c1ccc(S(=O)(=O)/C=C/C#N)cc1 [Bay 11-7085] | 95.2 ± 7.7 | 
LY-310,762 hydrochloride | 93.0 ± 7.5 | 
CCn1c(=O)[nH]c2cc(Cl)c(Cl)cc21 [DCEBIO] | 87.8 ± 8.9 | 
O=C(O)C1=CC(=C(c2ccc(O)c(C(=O)O)c2)c2ccc(O)c(C(=O)O)c2)C=CC1=O [Aurintricarboxylic acid] | 93.7 ± 12.0 | 
N[C@@H]1CONC1=O (racemic) [DL-Cycloserine] | 97.4 ± 8.2 | 
CC[C@H](CO)Nc1nc(NCc2ccccc2)c2ncn(C(C)C)c2n1 [Roscovitine] | 45.3 ± 8.6 | 
Clc1ccc2c(c1)C(N1CCNCC1)=Nc1ccccc1O2 [Amoxapine] | 102.6 ± 1.7 | 
C[C@]12CC[C@@H]3c4ccc(O)cc4CC[C@H]3[C@@H]1CCC2=O [Estrone] | 91.0 ± 8.5 | 
CC(C)NCC(O)c1ccc(O)c(O)c1.Cl (single isomer, unassigned; (-)) [(-)-Isoproterenol hydrochloride] | 98.6 ± 14.4 | 

Molecule | % 25 nM CA200645 binding [%] | hit in LOPAC primary screen (inhibited the binding of CA200645 by >40%)
NCCc1c[nH]c2ccc(C(N)=O)cc12.O=C(O)/C=C\C(=O)O [5-Carboxamidotryptamine maleate] | 85.7 ± 14.5 | 
Nc1nc(SCc2ccc([N+](=O)[O-])cc2)c2ncn([C@@H]3O[C@H](CO)[C@@H](O)[C@H]3O)c2n1 [S-(4-Nitrobenzyl)-6-thioguanosine] | 91.9 ± 3.2 | 
CNC(=O)c1cc2c(cn1)[nH]c1ccccc12 [N-Methyl-beta-carboline-3-carboxamide] | 84.9 ± 8.4 | 
Clc1nccc2c1ccc1ccccc12 [CBIQ] | 87.1 ± 7.0 | 
O=c1nc2[nH]c3ccccc3nc-2c(=O)[nH]1 [alloxazine, reference compound] | 89.0 ± 4.9 | 
C[C@]12CC[C@@H]3c4ccc(O)cc4CC[C@H]3[C@@H]1CC[C@@H]2O [beta-Estradiol] | 87.8 ± 13.4 | 
O=C(CCCN1CCC(O)(c2cccc(C(F)(F)F)c2)CC1)c1ccc(F)cc1 [Trifluperidol hydrochloride] | 102.8 ± 9.3 | 
CN1[C@@H]2CC[C@H]1C[C@@H](OC(c1ccccc1)c1ccccc1N)C2 (stereo partly drawn) [Aminobenztropine] | 92.7 ± 5.2 | 
CCOC(=O)C(C)Oc1cccc2c(=O)n(CC(=O)Nc3ccc4c(c3)OCCO4)ccc12 (stereo not drawn) [SID7969543] | 94.8 ± 24.3 | 
NC(CP(=O)(O)O)C(=O)O (racemic) [(±)-2-Amino-3-phosphonopropionic acid] | 96.0 ± 3.9 | 
CN1CCN(CCCN2c3ccccc3Sc3ccc(Cl)cc32)CC1 [Prochlorperazine dimaleate] | 90.4 ± 18.3 | 
C[N+]1(C)C2CCC1CC(OC(=O)c1c[nH]c3ccccc13)C2.[I-] (stereo not drawn) | 95.6 ± 4.9 | 
CCOC(=O)C1=C(O)C(=O)N(Cc2ccccc2)C1 [EBPC] | 98.2 ± 13.5 | 
Br.Br.N=C(N)SCCN | 91.5 ± 12.4 | 
C[C@@](Cc1ccc(O)c(O)c1)(NN)C(=O)O [S-(-)-Carbidopa] | 101.3 ± 7.8 | 
Nc1ccc2c3c(cccc13)C(=O)NC2=O [4-Amino-1,8-naphthalimide] | 95.4 ± 12.1 | 
O=C1C=CC(=O)C=C1 [p-Benzoquinone] | 85.9 ± 13.7 | 
Cc1cc(N)c2ccccc2[n+]1CCCCCCCCCC[n+]1c(C)cc(N)c2ccccc21.[Cl-].[Cl-] [Dequalinium chloride hydrate] | 86.1 ± 10.0 | 
Oc1cc(O)cc(/C=C/c2ccc(O)c(O)c2)c1 [Piceatannol] | 79.1 ± 22.1 | 
O=C(N[C@H]1CN2CCC1CC2)c1ccc(Cl)cc1 [PNU-282987] | 78.9 ± 33.0 | 
Cl.Cn1c(CCCC(=O)O)nc2cc(N(CCCl)CCCl)ccc21 [Bendamustine hydrochloride] | 97.6 ± 4.1 | 

Molecule | % 25 nM CA200645 binding [%] | hit in LOPAC primary screen (inhibited the binding of CA200645 by >40%)
CC1CCN=C(N)S1.Cl (racemic) [(±)-AMT hydrochloride] | 100.6 ± 12.5 | 
CC(=O)[C@H]1CC[C@H]2[C@@H]3CC[C@H]4C[C@](C)(O)CC[C@]4(C)[C@H]3CC[C@]12C [Ganaxolone] | 83.6 ± 13.4 | 
CCN1C[C@]2(COC)[C@H](O)C[C@H](OC)[C@@]34[C@@H]5C[C@@]6(O)[C@H](OC(=O)c7ccccc7)[C@@H]5[C@@](OC(C)=O)([C@@H]([C@H](OC)[C@H]23)[C@@H]14)[C@@H](O)[C@@H]6OC [Aconitine] | 95.2 ± 4.4 | 
C[N+]1(C)[C@@H]2C[C@@H](OC(=O)[C@H](CO)c3ccccc3)C[C@H]1[C@@H]1O[C@@H]12 [(-)-Scopolamine methyl bromide] | 88.5 ± 14.0 | 
Cl.c1ccc([C@H]2CN3CCSC3=N2)cc1 [(-)-Tetramisole hydrochloride] | 112.9 ± 6.8 | 
CN1CCN(C2=Nc3ccccc3Oc3ccc(Cl)cc32)CC1 [Loxapine succinate] | 80.2 ± 12.7 | 
L-Methionine sulfoximine | 107.1 ± 5.4 | 
N.N.[Cl][Pt][Cl] [Cisplatin] | 69.0 ± 8.2 | 
Nc1ncnc2c1ncn2C1CCCO1 (stereo not drawn) [SQ 22536] | 102.7 ± 4.9 | 
CC(=O)OCC1=C(C(=O)O)N2C(=O)[C@@H](NC(=O)Cc3cccs3)[C@H]2SC1 [Cephalothin sodium] | 104.6 ± 12.0 | 
CO[C@@]1(NC(=O)CSCC#N)C(=O)N2C(C(=O)O)=C(CSc3nnnn3C)CS[C@@H]21 [Cefmetazole sodium] | 84.6 ± 22.3 | 
CN(C)CCCN1c2ccccc2Sc2ccc(C(F)(F)F)cc21 [Triflupromazine hydrochloride] | 99.0 ± 16.0 | 
COc1cc2nc(N(C)CCCNC(=O)C3CCCO3)nc(N)c2cc1OC (stereo not drawn) [Alfuzosin hydrochloride] | 102.3 ± 4.9 | 
Cl.NC1C=CC=C(C(=O)O)C1 (stereo not drawn) [Gabaculine hydrochloride] | 97.5 ± 8.4 | 
O=C1Cc2cc(CCN3CCN(c4nsc5ccccc45)CC3)c(Cl)cc2N1 [Ziprasidone hydrochloride monohydrate] | 84.7 ± 3.4 | 
O=C(Nc1ccccc1)c1cc([N+](=O)[O-])ccc1Cl [GW9662] | 114.5 ± 11.5 | 
O=C(O)C1CCNCC1 [Isonipecotic acid] | 88.5 ± 19.5 | 
NCCCNCCSP(=O)(O)O [Amifostine] | 94.6 ± 2.0 | 
CCc1cc(Cl)c(O)c(C(=O)NC[C@@H]2CCCN2CC)c1OC.Cl [S-(-)-Eticlopride hydrochloride] | 96.8 ± 1.1 | 
O=C(O)CCC/C=C\C[C@@H]1[C@@H](/C=C/[C@H](O)C2Cc3ccccc3C2)[C@@H](F)C[C@@H]1O [AL-8810] | 75.0 ± 17.3 | 
C/C(=C\c1ccc(C(=O)O)cc1)c1ccc2c(c1)C(C)(C)CCC2(C)C [TTNPB] | 92.9 ± 11.5 | 

Same assay, conditions: 10 μM compound, 25 nM CA200645, A3AR CHO cells

Molecule | hit in LOPAC primary screen (inhibited the binding of CA200645 by >40%)
O=c1nc2[nH]c3ccccc3nc-2c(=O)[nH]1 [alloxazine, reference compound] | not identified as hits

Same assay, conditions: % of control wells (1% DMSO and 25 nM CA200645); compounds at 10 µM; whole live cells expressing A3AR; mean ± SD, three experiments in duplicate

Molecule | % 25 nM CA200645 binding [%]
CN1[C@@H]2CC[C@H]1C[C@@H](OC(=O)c1cc(Cl)cc(Cl)c1)C2 [3-Tropanyl-3,5-dichlorobenzoate] | 96.9 ± 4.1

Same assay, conditions: % of control wells (1% DMSO and 25 nM CA200645); compounds at 10 µM; whole live cells expressing the A3AR; mean ± SD, three experiments in duplicate

Molecule | % 25 nM CA200645 binding [%]
C=C/C(C)=C/[C@@]1(C)SC(=O)C(C)=C1O [Thiolactomycin] | 98.5 ± 7.2

Same assay, conditions: compounds tested at 10 µM; % of control wells (1% DMSO and 25 nM CA200645); whole live cells expressing the A3AR; mean ± SD, three experiments in duplicate

Molecule | % 25 nM CA200645 binding [%]
C[C@]12CCC(=O)C=C1CC[C@@H]1[C@@H]2CC[C@@]2(C)[C@H]1CC[C@]2(O)C(=O)CO [Cortexolone] | 110.6 ± 19.2
C[N+]1(C)[C@@H]2CC[C@H]1C[C@@H](OC(=O)C(CO)c1ccccc1)C2 (stereo partly drawn) [Atropine methyl bromide] | 102.2 ± 7.3
O=C1NC(=O)[C@@]2(CCOc3ccc(F)cc32)N1 [Sorbinil] | 96.4 ± 14.0
